Test results published in US9175003B2, “Substituted azoanthracene derivatives and intermediates for preparation thereof” (TransTech Pharma, LLC, priority 2009, dated 2015).

These compounds were tested against human GLP-1 receptor (Homo sapiens (Human), UniProt P43220). Settings: read-out: Mean EC50; cAMP, HTRF detection, 30 min at 37° C., HEK-293 cells expressing cloned human GLP-1 receptor.
Sequence of human GLP-1 receptor (P43220 24-463): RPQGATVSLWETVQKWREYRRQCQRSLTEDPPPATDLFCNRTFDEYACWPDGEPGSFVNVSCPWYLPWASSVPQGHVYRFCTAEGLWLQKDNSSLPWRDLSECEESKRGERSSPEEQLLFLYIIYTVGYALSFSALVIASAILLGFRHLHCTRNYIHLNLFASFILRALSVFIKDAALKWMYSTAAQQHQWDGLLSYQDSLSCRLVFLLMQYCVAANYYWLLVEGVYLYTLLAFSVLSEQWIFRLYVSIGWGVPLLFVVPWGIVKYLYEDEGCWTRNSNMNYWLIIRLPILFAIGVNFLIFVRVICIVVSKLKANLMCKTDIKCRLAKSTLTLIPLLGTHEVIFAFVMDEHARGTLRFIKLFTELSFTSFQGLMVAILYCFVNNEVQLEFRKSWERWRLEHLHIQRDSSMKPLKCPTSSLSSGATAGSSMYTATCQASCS
With `Cc1nccc(-c2ccc(C[C@H](NC(=O)[C@@H]3Cc4cc5c(cc4CN3C(=O)N[C@H](C)c3ccccc3)O[C@@H](c3ccc(OCc4cc(F)cc(F)c4)cc3)CO5)C(=O)O)cc2)c1C` [Example 365, (S)-2-{[(3S,8S)-3-[4-(3,5-Difluoro-benzyloxy)-phenyl]-7-((R)-1-phenyl-ethylcarbamoyl)-2,3,6,7,8,9-hexahydro-[1,4]dioxino[2,3-g]isoquinoline-8-carbonyl]-amino}-3-[4-(2,3-dimethyl-pyridin-4-yl)-phenyl]-propionic acid] the EC50 was 95 nM.
`Cc1nccc(-c2ccc(C[C@H](NC(=O)[C@@H]3Cc4cc5c(cc4CN3C(=O)N[C@H](C)c3ccccc3)O[C@@H](c3ccc(OCc4cccc(Cl)c4Cl)cc3)CO5)C(=O)O)cc2)c1C` [Example 369, (S)-2-{[(3S,8S)-3-[4-(2,3-Dichloro-benzyloxy)-phenyl]-7-((R)-1-phenyl-ethylcarbamoyl)-2,3,6,7,8,9-hexahydro-[1,4]dioxino[2,3-g]isoquinoline-8-carbonyl]-amino}-3-[4-(2,3-dimethyl-pyridin-4-yl)-phenyl]-propionic acid] gave an EC50 of 112 nM.
`Cc1nccc(-c2ccc(C[C@H](NC(=O)[C@@H]3Cc4cc5c(cc4CN3C(=O)N[C@H](C)c3ccccc3)O[C@@H](c3ccc(OCc4cc(Cl)ccc4Cl)cc3)CO5)C(=O)O)cc2)c1C` [Example 370, (S)-2-{[(3S,8S)-3-[4-(2,5-Dichloro-benzyloxy)-phenyl]-7-((R)-1-phenyl-ethylcarbamoyl)-2,3,6,7,8,9-hexahydro-[1,4]dioxino[2,3-g]isoquinoline-8-carbonyl]-amino}-3-[4-(2,3-dimethyl-pyridin-4-yl)-phenyl]-propionic acid] was tested, and the EC50 was 62 nM.
Compound `Cc1nc(C(=O)N2Cc3cc4c(cc3C[C@H]2C(=O)N[C@@H](Cc2ccc(-c3ccnc(C)c3C)cc2)C(=O)O)OC[C@H](c2ccc(OCCc3ccc(Cl)cc3)cc2)O4)c(C)o1` [Example 371, (S)-2-{[(3S,8S)-3-{4-[2-(4-Chloro-phenyl)-ethoxy]-phenyl}-7-(2,5-dimethyl-oxazole-4-carbonyl)-2,3,6,7,8,9-hexahydro-[1,4]dioxino[2,3-g]isoquinoline-8-carbonyl]-amino}-3-[4-(2,3-dimethyl-pyridin-4-yl)-phenyl]-propionic acid] has an EC50 of 36 nM.
`Cc1nc(C(=O)N2Cc3cc4c(cc3C[C@H]2C(=O)N[C@@H](Cc2ccc(-c3ccnc(C)c3C)cc2)C(=O)O)OC[C@H](c2ccc(O[C@H]3CC[C@H](C(C)(C)C)CC3)cc2)O4)c(C)o1` [Example 372, (S)-2-{[(3S,8S)-3-[4-(trans-4-tert-Butyl-cyclohexyloxy)-phenyl]-7-(2,5-dimethyl-oxazole-4-carbonyl)-2,3,6,7,8,9-hexahydro-[1,4]dioxino[2,3-g]isoquinoline-8-carbonyl]-amino}-3-[4-(2,3-dimethyl-pyridin-4-yl)-phenyl]-propionic acid] gave an EC50 of 64 nM.
For `CC[C@H]1CC[C@H](Oc2ccc([C@H]3COc4cc5c(cc4O3)CN(C(=O)c3nc(C)oc3C)[C@H](C(=O)N[C@@H](Cc3ccc(-c4ccnc(C)c4C)cc3)C(=O)O)C5)cc2)CC1` [Example 373, (S)-2-({(3S,8S)-7-(2,5-Dimethyl-oxazole-4-carbonyl)-3-[-4-(trans-4-ethyl-cyclohexyloxy)-phenyl]-2,3,6,7,8,9-hexahydro-[1,4]dioxino[2,3-g]isoquinoline-8-carbonyl}-amino)-3-[4-(2,3-dimethyl-pyridin-4-yl)-phenyl]-propionic acid], the EC50 was 187 nM.
`Cc1nc(C(=O)N2Cc3cc4c(cc3C[C@H]2C(=O)N[C@@H](Cc2ccc(-c3ccnc(C)c3C)cc2)C(=O)O)OC[C@H](c2ccc(OC3CCC(Cl)CC3)cc2)O4)c(C)o1` (stereo partly drawn) [Example 375, (S)-2-{[(3S,8S)-3-[4-(4-Chloro-cyclohexyloxy)-phenyl]-7-(2,5-dimethyl-oxazole-4-carbonyl)-2,3,6,7,8,9-hexahydro-[1,4]dioxino[2,3-g]isoquinoline-8-carbonyl]-amino}-3-[4-(2,3-dimethyl-pyridin-4-yl)-phenyl]-propionic acid] gave an EC50 of 50 nM.
For `Cc1nc(C(=O)N2Cc3cc4c(cc3C[C@H]2C(=O)N[C@@H](Cc2ccc(-c3ccnc(C)c3C)cc2)C(=O)O)OC[C@H](c2ccc(OCc3cncc(Cl)c3)cc2)O4)c(C)o1` [Example 376, (S)-2-{[(3S,8S)-3-[4-(5-Chloro-pyridin-3-ylmethoxy)-phenyl]-7-(2,5-dimethyl-oxazole-4-carbonyl)-2,3,6,7,8,9-hexahydro-[1,4]dioxino[2,3-g]isoquinoline-8-carbonyl]-amino}-3-[4-(2,3-dimethyl-pyridin-4-yl)-phenyl]-propionic acid], the EC50 was 38 nM.
With `Cc1nc(C(=O)N2Cc3cc4c(cc3C[C@H]2C(=O)N[C@@H](Cc2ccc(-c3ccnc(C)c3C)cc2)C(=O)O)OC[C@H](c2ccc(OCCc3ccccc3)cc2)O4)c(C)o1` [Example 377, (S)-2-{[(3S,8S)-7-(2,5-Dimethyl-oxazole-4-carbonyl)-3-(4-phenethyloxy-phenyl)-2,3,6,7,8,9-hexahydro-[1,4]dioxino[2,3-g]isoquinoline-8-carbonyl]-amino}-3-[4-(2,3-dimethyl-pyridin-4-yl)-phenyl]-propionic acid] the EC50 was 49 nM.
For `Cc1nc(C(=O)N2Cc3cc4c(cc3C[C@H]2C(=O)N[C@@H](Cc2ccc(-c3ccnc(C)c3C)cc2)C(=O)O)OC[C@H](c2ccc(OCC3(c5ccc(Cl)cc5)CC3)cc2)O4)c(C)o1` [Example 378, (S)-2-{[(3S,8S)-3-{4-[1-(4-Chloro-phenyl)-cyclopropylmethoxy]-phenyl}-7-(2,5-dimethyl-oxazole-4-carbonyl)-2,3,6,7,8,9-hexahydro-[1,4]dioxino[2,3-g]isoquinoline-8-carbonyl]-amino}-3-[4-(2,3-dimethyl-pyridin-4-yl)-phenyl]-propionic acid], the EC50 was 282 nM.
Compound `Cc1nc(C(=O)N2Cc3cc4c(cc3C[C@H]2C(=O)N[C@@H](Cc2ccc(-c3ccnc(C)c3C)cc2)C(=O)O)OC[C@H](c2ccc(OCC3CCCC3)cc2)O4)c(C)o1` [Example 379, (S)-2-{[(3S,8S)-3-(4-cyclopentylmethoxy-phenyl)-7-(2,5-dimethyl-oxazole-4-carbonyl)-2,3,6,7,8,9-hexahydro-[1,4]dioxino[2,3-g]isoquinoline-8-carbonyl]-amino}-3-[4-(2,3-dimethyl-pyridin-4-yl)-phenyl]-propionic acid] has an EC50 of 152 nM.
Work on `Cc1nc(C(=O)N2Cc3cc4c(cc3C[C@H]2C(=O)N[C@@H](Cc2ccc(-c3ccnc(C)c3C)cc2)C(=O)O)OC[C@H](c2ccc(OCCC(C)(C)C)cc2)O4)c(C)o1` [Example 380, (S)-2-{[(3S,8S)-3-[4-(3,3-dimethyl-butoxy)-phenyl]-7-(2,5-dimethyl-oxazole-4-carbonyl)-2,3,6,7,8,9-hexahydro-[1,4]dioxino[2,3-g]isoquinoline-8-carbonyl]-amino}-3-[4-(2,3-dimethyl-pyridin-4-yl)-phenyl]-propionic acid] yielded an EC50 of 213 nM.
For `Cc1nc(C(=O)N2Cc3cc4c(cc3C[C@H]2C(=O)N[C@@H](Cc2ccc(-c3ccnc(C)c3C)cc2)C(=O)O)OC[C@H](c2ccc(O[C@H]3CC[C@@H](C)CC3)cc2)O4)c(C)o1` [Example 381, (S)-2-({(3S,8S)-7-(2,5-Dimethyl-oxazole-4-carbonyl)-3-[4-(cis-4-methyl-cyclohexyloxy)-phenyl]-2,3,6,7,8,9-hexahydro-[1,4]dioxino[2,3-g]isoquinoline-8-carbonyl}-amino)-3-[4-(2,3-dimethyl-pyridin-4-yl)-phenyl]-propionic acid], the EC50 was 313 nM.
`Cc1nc(C(=O)N2Cc3cc4c(cc3C[C@H]2C(=O)N[C@@H](Cc2ccc(-c3ccnc(C)c3C)cc2)C(=O)O)OC[C@H](c2ccc(O[C@H]3CC[C@H](C)CC3)cc2)O4)c(C)o1` [Example 382, (S)-2-({(3S,8S)-7-(2,5-Dimethyl-oxazole-4-carbonyl)-3-[4-(trans-4-methyl-cyclohexyloxy)-phenyl]-2,3,6,7,8,9-hexahydro-[1,4]dioxino[2,3-g]isoquinoline-8-carbonyl}-amino)-3-[4-(2,3-dimethyl-pyridin-4-yl)-phenyl]-propionic acid] showed an EC50 of 106 nM.
Work on `Cc1nc(C(=O)N2Cc3cc4c(cc3C[C@H]2C(=O)N[C@@H](Cc2ccc(-c3ccnc(C)c3C)cc2)C(=O)O)OC[C@H](c2ccc(OCc3ccc(Cl)cc3Cl)cc2)O4)c(C)o1` [Example 383, (S)-2-{[(3S,8S)-3-[4-(2,4-dichloro-benzyloxy)-phenyl]-7-(2,5-dimethyl-oxazole-4-carbonyl)-2,3,6,7,8,9-hexahydro-[1,4]dioxino[2,3-g]isoquinoline-8-carbonyl]-amino}-3-[4-(2,3-dimethyl-pyridin-4-yl)-phenyl]-propionic acid] yielded an EC50 of 138 nM.
`Cc1nc(C(=O)N2Cc3cc4c(cc3C[C@H]2C(=O)N[C@@H](Cc2ccc(-c3ccnc(C)c3C)cc2)C(=O)O)OC[C@H](c2ccc(OCc3cc(Cl)cc(Cl)c3)cc2)O4)c(C)o1` [Example 384, (S)-2-{[(3S,8S)-3-[4-(3,5-Dichloro-benzyloxy)-phenyl]-7-(2,5-dimethyl-oxazole-4-carbonyl)-2,3,6,7,8,9-hexahydro-[1,4]dioxino[2,3-g]isoquinoline-8-carbonyl]-amino}-3-[4-(2,3-dimethyl-pyridin-4-yl)-phenyl]-propionic acid] gave an EC50 of 26 nM.
`Cc1nc(C(=O)N2Cc3cc4c(cc3C[C@H]2C(=O)N[C@@H](Cc2ccc(-c3ccnc(C)c3C)cc2)C(=O)O)OC[C@H](c2ccc(O[C@H]3CC[C@@H](C(C)(C)C)CC3)cc2)O4)c(C)o1` [Example 386, (S)-2-{[(3S,8S)-3-[4-(cis-4-tert-Butyl-cyclohexyloxy)-phenyl]-7-(2,5-dimethyl-oxazole-4-carbonyl)-2,3,6,7,8,9-hexahydro-[1,4]dioxino[2,3-g]isoquinoline-8-carbonyl]-amino}-3-[4-(2,3-dimethyl-pyridin-4-yl)-phenyl]-propionic acid] was tested, and the EC50 was 269 nM.
With `Cc1nc(C(=O)N2Cc3cc4c(cc3C[C@H]2C(=O)N[C@@H](Cc2ccc(-c3ccnc(C)c3C)cc2)C(=O)O)OC[C@H](c2ccc(OCCc3ccc(Cl)c(Cl)c3)cc2)O4)c(C)o1` [Example 387, (S)-2-{[(3S,8S)-3-{4-[2-(3,4-Dichloro-phenyl)-ethoxy]-phenyl}-7-(2,5-dimethyl-oxazole-4-carbonyl)-2,3,6,7,8,9-hexahydro-[1,4]dioxino[2,3-g]isoquinoline-8-carbonyl]-amino}-3-[4-(2,3-dimethyl-pyridin-4-yl)-phenyl]-propionic acid] the EC50 was 34 nM.
